Where two headings read alike, the source gives them in different places.
Experiments:
[1] = test system: Jurkat (FADD−/−) cells; assay: Inhibition of TNF-induced programmed Jurkat (FADD−/−) cell necrosis (Cell Titer-Glo); assay type: cell-based, human; details: Homo sapiens, Jurkat, 20 h, read-out: Cellular IC50 (M) Jurkat (FADD−/−)
Procedure, shortened: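 FADD-knockout Jurkat cells (5×10^5/mL) preincubated with compound, then given TNF (final 10 ng/mL) for 20 h at 37 °C. ATP measured by Cell Titer-Glo luminescence, normalised to untreated DMSO wells as 100% viability; IC50 from duplicate wells.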

[2] = test system: TNF-α induced shock; assay: TNF-α induced shock test in mice; assay type: in vivo, C57BL/6 mice; details: 10, 20 and 30 mg/kg, given 15 min before TNF-α; body temperature 0-6 h
Description: C57BL/6 mice were specially sterilized, and the animals are randomly grouped according to their body weight. 0.15 mg/mL TNF-α was prepared. Each mouse was injected with 200 μL TNF-alpha (30 μg per mouse) through the tail vein. 15 min before TNF-α induction, the drug was administered according to the body weight. At 0 h, 1 h, 2 h, 4 h, and 6 h, the body temperature of the mouse was detected by a small animal thermometer and recorded, and the state of the animal was observed during the test. After 6 h, the mice were euthanized with CO2. The experimental data was plotted by Graph Pad Prism 7, and expressed as mean±standard error (Mean±SEM). The area under the clinical scoring curve was analyzed by one-way ANOVA. p<0.05 is considered to have significant differences as compared to the control group.

[3] = molecular target: T1, human RIP1 (Homo sapiens, UniProt Q13546); assay: Inhibition of ADP-Glo RIP1 kinase activity; assay type: biochemical
T1 construct: made in house; host or cells: Sf-9 insect cells
T1 sequence (Q13546 1-671): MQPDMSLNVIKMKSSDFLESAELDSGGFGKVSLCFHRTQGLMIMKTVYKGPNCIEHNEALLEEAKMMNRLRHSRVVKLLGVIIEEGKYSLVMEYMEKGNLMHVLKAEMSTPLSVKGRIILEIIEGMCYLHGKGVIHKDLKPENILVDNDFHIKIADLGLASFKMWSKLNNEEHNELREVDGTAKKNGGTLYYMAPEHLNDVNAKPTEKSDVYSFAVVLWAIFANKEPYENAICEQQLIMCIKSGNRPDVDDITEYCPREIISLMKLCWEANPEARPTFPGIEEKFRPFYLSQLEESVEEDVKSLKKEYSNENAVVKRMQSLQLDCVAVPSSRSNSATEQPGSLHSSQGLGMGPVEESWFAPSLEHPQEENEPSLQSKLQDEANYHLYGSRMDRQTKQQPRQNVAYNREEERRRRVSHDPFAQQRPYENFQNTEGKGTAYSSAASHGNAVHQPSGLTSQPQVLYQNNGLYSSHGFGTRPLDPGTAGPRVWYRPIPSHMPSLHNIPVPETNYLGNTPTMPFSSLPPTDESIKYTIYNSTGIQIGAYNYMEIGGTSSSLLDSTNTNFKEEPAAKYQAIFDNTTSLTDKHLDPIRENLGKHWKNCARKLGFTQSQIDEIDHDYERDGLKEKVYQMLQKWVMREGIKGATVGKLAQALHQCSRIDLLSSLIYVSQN
Description: The human RIP1 gene was transduced into Sf-9 insect cells, and the RIP1 protein was purified by Ni+ affinity chromatography and then by S-200 molecular sieve to remove the protein multimers. The obtained RIP1 protein was stored at −70° C., and the activity of the RIP1 protein in catalyzing autophosphorylation was detected by the ADP-Glo™ Kinase Activity Assay Kit (Promega) and the inhibitory activity of the drug against the RIP1 kinase was determined.
100 nL of the compound was transferred to a 384-well assay plate. Two replicate wells were set for each concentration of each drug.
The RIP1 enzyme solution and ATP solution were formulated in an assay buffer (containing 50 mM HEPES pH 7.5, 30 mM MgCl2, 50 mM NaCl, 1 mM DTT, 0.02% CHAPS, and 0.5 mg/ml BSA). Then, 5 μL of the RIP1 enzyme solution (final concentration 50 nM) was added to the assay plate and incubated at room temperature for 1 h. 5 μL of the ATP solution (final concentration 10 μM) was added to the assay plate, and incubate at room temperature for 4 h. Then 5 μL of ADP-Glo reagent was added to the assay plate, and incubated at room temperature for 60 min. 5 μL of a kinase assay solution was added to the assay plate, and incubated at room temperature for 30 min. After readout on Envision, the inhibition rate in each well was calculated from the full-activity well and the background well, and the Ki of the compound was calculated by GraphPad Prism 7 software (using the Morrision equation to fit the curve and calculate the Ki).

[4] = Plasma concentration in mice after a single oral administration; assay type: in vivo; details: single oral dose 10 mg/kg, 0.25-24 h
Description: An oral solution containing Compound RIP1-034 of the present application was freshly prepared with an aqueous solution containing 0.5% MC/0.25% Tween 80 on the day of administration. All animals were fasted overnight before administration, and were allowed to have free food intake 4 hours after administration. Each group included three mice, and each mouse was orally administered a single dose of 10 mg/kg on the day of the experiment. About 30 μL of whole blood was collected from the dorsal vein of the foot at 0.25, 0.5, 1, 2, 4, 6, 8, and 24 hours after administration, transferred to an anticoagulation tube containing heparin sodium and mixed thoroughly by inverting for several times. The collected blood sample was centrifuged at 4° C. and 4000 g for 5 min to collect plasma, and the plasma sample was dispensed into clean polyethylene microcentrifuge tubes, and then stored in a freezer at −75±15° C. until analysis. The actual administration volume was calculated based on the animal's body weight. All samples were analyzed by LC-MS/MS, and the concentration of the drug to be tested in the samples was determined by the standard curve method. The average plasma concentration in a group of three mice at each measurement time point after a single oral administration is shown in FIG. 3.

[5] = TNF 10 ng/mL, intracellular ATP level

Row | Compound | IC50 [1, 5] [M] | decrease in body temperature due to systemic inflammatory response caused by TNF-α [2] | Ki [3] [nM] | plasma concentration after oral administration [4] | IC50 [1] [M]
1 | CN1C(=O)[C@@H](NC(=O)c2nnc(Cc3ccccc3)[nH]2)COc2cc3[nH]nc(Cl)c3cc21 [RIP1-034] | 8.9e-10 | effectively inhibits the decrease in body temperature | 6.35 | can reach a desirable plasma concentration | –
2 | CN1C(=O)[C@@H](NC(=O)c2ncn(Cc3ccccc3)n2)COc2ccc3cnccc3c21 [RIP1-108] | 1.64e-10 | – | 12.6 | – | –
3 | CN1C(=O)[C@@H](NC(=O)c2cn(Cc3ccccc3)cn2)COc2ccc3cnccc3c21 [RIP1-109] | 7.22e-10 | – | 6.85 | – | –
4 | CN1C(=O)[C@@H](NC(=O)c2cn(Cc3ccccc3)nn2)COc2ccc3cnccc3c21 [RIP1-110] | 4.44e-09 | – | 14.6 | – | –
5 | CN1C(=O)[C@@H](NC(=O)c2cc(Cc3ccccc3)on2)COc2ccc3cnccc3c21 [RIP1-111] | 1.16e-09 | – | 18.5 | – | –
6 | CN1C(=O)[C@@H](NC(=O)c2ncn(Cc3ccccc3)n2)COc2cc3occc3cc21 [RIP1-119] | 5.81e-10 | – | 19.1 | – | –
7 | CN1C(=O)[C@@H](NC(=O)c2cn(Cc3ccccc3)cn2)COc2cc3occc3cc21 [RIP1-120] | 2.56e-09 | – | 20.7 | – | –
8 | CN1C(=O)[C@@H](NC(=O)c2cn(Cc3ccccc3)nn2)COc2cc3occc3cc21 [RIP1-121] | – | – | 32.7 | – | 1.37e-08
9 | CN1C(=O)[C@@H](NC(=O)c2nnn(Cc3ccccc3)n2)COc2cc3occc3cc21 [RIP1-122] | 2.26e-10 | – | 15.6 | – | –
10 | CN1C(=O)[C@@H](NC(=O)c2noc(Cc3ccccc3)n2)COc2cc3occc3cc21 [RIP1-123] | 1.33e-09 | – | 23.2 | – | –
11 | CN1C(=O)[C@@H](NC(=O)c2nnc(Cc3ccccc3)o2)COc2cc3occc3cc21 [RIP1-125] | 8.43e-10 | – | 19.6 | – | –
12 | CN1C(=O)[C@@H](NC(=O)c2cc(Cc3ccccc3)on2)COc2cc3occc3cc21 [RIP1-126] | 2.61e-09 | – | 25.6 | – | –
13 | CN1C(=O)[C@@H](NC(=O)c2nnc(Cc3ccccc3)[nH]2)COc2cc3occc3cc21 [RIP1-127] | 3.28e-09 | – | 16.2 | – | –
14 | CN1C(=O)[C@@H](NC(=O)c2nnn(Cc3ccccc3)n2)COc2cc3nccnc3cc21 [RIP1-131] | 1.29e-09 | – | 28.6 | – | –
15 | CN1C(=O)[C@@H](NC(=O)c2noc(Cc3ccccc3)n2)COc2cc3nccnc3cc21 [RIP1-132] | 4.57e-09 | – | 19.3 | – | –
16 | Cc1ccc(Cc2cc(C(=O)N[C@H]3COc4cc5nccnc5cc4N(C)C3=O)nn2C)cc1 [RIP1-133] | 5.3e-08 | – | 23.1 | – | –
17 | CN1C(=O)[C@@H](NC(=O)c2nnc(Cc3ccccc3)o2)COc2cc3nccnc3cc21 [RIP1-134] | 9.03e-09 | – | 21.9 | – | –
18 | CN1C(=O)[C@@H](NC(=O)c2nnc(Cc3ccccc3)[nH]2)COc2cc3nccnc3cc21 [RIP1-135] | 4.25e-09 | – | 21.5 | – | –
19 | CN1C(=O)[C@@H](NC(=O)c2ncn(Cc3ccccc3)n2)COc2cc3[nH]nnc3cc21 [RIP1-136] | 9.34e-09 | – | 17.8 | – | –
20 | CN1C(=O)[C@@H](NC(=O)c2cn(Cc3ccccc3)cn2)COc2cc3[nH]nnc3cc21 [RIP1-137] | 7.31e-09 | – | 13.3 | – | –
21 | CN1C(=O)[C@@H](NC(=O)c2cn(Cc3ccccc3)nn2)COc2cc3[nH]nnc3cc21 [RIP1-138] | 1.68e-08 | – | 19.8 | – | –
22 | CN1C(=O)[C@@H](NC(=O)c2nnn(Cc3ccccc3)n2)COc2cc3[nH]nnc3cc21 [RIP1-139] | 7.81e-10 | – | 20.3 | – | –
23 | CN1C(=O)[C@@H](NC(=O)c2noc(Cc3ccccc3)n2)COc2cc3[nH]nnc3cc21 [RIP1-140] | 1.37e-09 | – | 50.6 | – | –
24 | CN1C(=O)[C@@H](NC(=O)c2cc(Cc3ccccc3)on2)COc2cc3[nH]nnc3cc21 [RIP1-142] | 1.86e-09 | – | 19.1 | – | –
25 | COc1ncnc2cc3c(cc12)N(C)C(=O)[C@@H](NC(=O)c1ncn(Cc2ccccc2)n1)CO3 [RIP1-145] | 4.61e-10 | – | 10.5 | – | –
26 | COc1ncnc2cc3c(cc12)N(C)C(=O)[C@@H](NC(=O)c1n[nH]c(Cc2ccccc2)n1)CO3 [RIP1-146] | 1.85e-09 | – | 13.2 | – | –
27 | COc1ncnc2cc3c(cc12)N(C)C(=O)[C@@H](NC(=O)c1cn(Cc2ccccc2)cn1)CO3 [RIP1-147] | 1.69e-09 | – | 16.5 | – | –
28 | CN1C(=O)[C@@H](NC(=O)c2nnc(Cc3ccccc3)o2)COc2cc3[nH]nnc3cc21 [RIP1-153] | – | – | 12.8 | – | 1.52e-09

Reference: patent US20210292340A1, “CELL NECROSIS INHIBITOR, PREPARATION METHOD THEREFOR AND USE THEREOF” (SHANGHAI INSTITUTE OF ORGANIC CHEMISTRY, CHINESE ACADEMY OF …, priority 2018, published 2021)
